Source: ChEMBL document CHEMBL1149886, “Natural and non-natural prenylated chalcones: synthesis, cytotoxicity and anti-oxidative activity” (Bioorg Med Chem, 2008)

Experiments:
[1] = system: HeLa; assay: Cytotoxicity against human HeLa cells by MTT assay; format: functional, cell-based
[2] = Antioxidant activity assessed as trolox equivalent at 0.1 to 1.5 uM by ORAC-fluorescein assay; format: functional
[3] = Antioxidant activity assessed as trolox equivalent at 0.1 to 1 uM by ORAC-fluorescein assay; format: functional
[4] = Antioxidant activity assessed as trolox equivalent at 0.3 to 1 uM by ORAC-fluorescein assay; format: functional
[5] = Antioxidant activity assessed as trolox equivalent at 0.25 to 1.5 uM by ORAC-fluorescein assay; format: functional
[6] = Antioxidant activity assessed as trolox equivalent at 0.2 to 0.6 uM by ORAC-fluorescein assay; format: functional
[7] = Antioxidant activity assessed as trolox equivalent at 0.4 to 1 uM by ORAC-fluorescein assay; format: functional
[8] = Antioxidant activity assessed as trolox equivalent at 0.5 to 2.0 uM by ORAC-fluorescein assay; format: functional

With `COc1cc(OC)c(C(=O)/C=C/c2ccc(O)cc2)c(O)c1CC=C(C)C` the IC50 [1] was 11.8 µM and the Activity [2] was 3.8.

Work on `COc1cc(O)c(CC=C(C)C)c(O)c1C(=O)/C=C/c1cc(O)cc(O)c1` yielded an Activity [3] of 2.9 and an IC50 [1] of 3.2 µM.

`COc1cc(O)c(CC=C(C)C)c(O)c1C(=O)/C=C/c1cc(O)c(O)c(O)c1` gave an Activity [3] of 1.1 and an IC50 [1] of 30.3 µM.

With `COc1cc(/C=C/C(=O)O)ccc1O` the Activity [4] was 4.47.

`CC(C)=CCc1c(O)cc(O)c(C(=O)/C=C/c2ccc(O)cc2)c1O` [DEMETHYLXANTHOHUMOL] gave an IC50 [1] of 16.5 µM and an Activity [5] of 3.8.

In the case of `COc1cc(O)c(C(=O)/C=C/c2ccc(O)cc2)c(OC)c1CC=C(C)C`, the IC50 [1] is reported as 25.6 µM and the Activity [5] is reported as 1.5.

`O=c1c(O)c(-c2ccc(O)c(O)c2)oc2cc(O)cc(O)c12` showed an Activity [6] of 10.5.

`COc1cc(O)c(C(=O)/C=C/c2ccc(O)cc2)c(O)c1CC=C(C)C` [XANTHOGALENOL] showed an IC50 [1] of 28.3 µM and an Activity [5] of 1.8.

Work on `COc1cc(O)c(CC=C(C)C)c(O)c1C(=O)/C=C/c1ccc(O)c(O)c1` yielded an Activity [3] of 3.1 and an IC50 [1] of 2.5 µM.

`COc1cc(O)c(CC=C(C)C)c(O)c1C(=O)/C=C/c1ccccc1O` showed an IC50 [1] of 5.9 µM and an Activity [5] of 2.3.

`O=C(O)/C=C/c1ccc(O)cc1` gave an Activity [7] of 4.51.

With `COc1ccc(/C=C/C(=O)c2c(OC)cc(O)c(CC=C(C)C)c2O)cc1OC` the IC50 [1] was 17.1 µM and the Activity [8] was 0.9.

`COc1cc(O)cc(O)c1C(=O)/C=C/c1ccc(O)c(O)c1` gave an IC50 [1] of 14.8 µM and an Activity [5] of 3.

`COc1cc(O)c(CC=C(C)C)c(O)c1C(=O)/C=C/c1cccc(O)c1` gave an IC50 [1] of 4.8 µM and an Activity [5] of 2.7.

`COc1cc(O)c(CC=C(C)C)c(O)c1C(=O)/C=C/c1ccc(O)cc1` [XANTHOHUMOL] showed an IC50 [1] of 9.4 µM and an Activity [5] of 2.3.

Compound `COc1cc(O)cc(O)c1C(=O)/C=C/c1ccc(O)cc1` [HELICHRYSETIN] has an Activity [3] of 4.4 and an IC50 [1] of 5.2 µM.
